Four molecules from patent US20090232786A1, “HERBAL COMPOSITION FOR CANCER TREATMENT” (priority 2001, published 2009) can be followed below.

Test [1] relates to Prostaglandin E2 (PGE2) production in a mouse 3T3 fibroblast cell line. The test can be described thus: Anti-inflammatory assay: secreted PGE2 from stimulated 3T3 fibroblasts. It counts as cell-based. The settings on record: 3T3 cells, 500 μM, dilution 500. An excerpt:
This assay was run to determine the effectiveness of the herbal formula to inhibit Prostaglandin E2 (PGE2) production in a mouse 3T3 fibroblast cell line.
The anti-inflammatory assay measures the level of PGE2 in stimulated mouse fibroblast 3T3 cell line after treatment with the herbal formula. The use of a stimulated cell line rather than using isolated enzyme systems gives more useful data.
PGE2 is formed in a variety of cells from PGH2, which itself is synthesized from arachiodonic acid by the enzyme prostaglandin synthetase. The assay measures secreted levels of PGE2 from the supernatant of the fibroblast cells.

The test system of test [2] is serum PSA. The test can be described thus: Patient case studies: serum PSA. Type of test: in vivo, human. The settings on record: Example 11; Casodex 50 mg once daily for three months; PSA before 41. As for the experimental part: Serum PSA was measured to be 300. This patient then started hormone therapy including an oral administration of 100 mg of Androcur (Cyproterone Acetate) 3 times per day, and a subcutaneous injection of 3.6 mg of Zolodex (Goserelin Acetate Implant) once per three months. The prostate has been monitored since with serum PSA levels, varying between “28-62”.
In May 2001, the PSA level was measured to be 41. At that time, the patient stopped taking Androcur and Zolodex, and started to take Casodex 50 mg once daily. The treatment with Casodex continued for three months and follow-up blood tests indicated a serum PSA of 5.7.
From August 2001, this patient started to combine Casodex with an oral administration of the herbal formula of the present invention. The intake dosage of the herbal formula was 2070 mg per day. This combination treatment continued for two months.
From October 2001, the dosage of this herb formula was increased to 2760 mg per day. Following PSA level measurement was 2.3 in November 2001.
The patient in this case study was a person. […] The PSA was measured to be 21.
The prostate has been monitored approximately every 6 months. As the PSA reading was between “13-17” on occasions, when readings were high, antibiotics were prescribed for prostatitis. The PSA was measured to be 18.7 at August of 2001. […]

Test [3] has as its system LNCap cell lines. The test can be described thus: LNCap cell cycle assay. Type of test: cell-based. The settings on record: positive control (FIG. 7). The method, then:
A anti-cancer activity assay was conducted with the results presented in Table 3 wherein the herb formula represents a combination according to the present invention. LNCap is an androgen-dependent prostate cancer cell line.

The test system of test [4] is PC-3 cell lines. The test can be described thus: PC3 cell cycle analysis by flow cytometry of propidium iodide stained cells. Type of test: cell-based. The settings on record: PC-3, paclitaxol 10 ng/mL (FIG. 3). As for the experimental part:
Cell cycle analysis was carried out using tablets/capsules of the present invention. The formulation was tested as a single tablet/capsule concentration in triplicate and as a two capsule concentration also in triplicate.
Tablets/capsules were weighed, crushed and extracted with 10 ml of methanol. The extracts were sonicated for 40 mins and then spun down at 4000 rpm. The supernatant was removed and 100 μL of this extract was used in the cell cycle analysis. A further aliquot of this extract was subjected to HPLC-MS analysis as described in Example 3 below. Cells were split into 16×25 cm^2 flasks at a low concentration and allowed to grow to 65-70% confluence (at the time of addition the cells were in log phase). Flasks were incubated for 24 hours and control flasks of control media (no additions), an ethanol (100 μL EtOH), a control methanol (100 μL MeOH) and paclitaxol (10 μL of 0.01 mg/mL=10 ng/mL) were also run.
Flow cytometry was performed on the fixed cells after washing in PBS and stained using propidium iodide (2% PI in 0.1% Triton X-100 containing 2 mg/mL Rnase A). A Becton Dickson FACSCaliber was used to assay the cells.
Background: In flow cytometry, cells or beads pass a laser one at a time.

In test [5] the test system is HL60 cell lines. As to the kind of experiment: HL60 cell cycle assay. Type of test: cell-based, human. The settings on record: HL60, positive control (FIG. 10). As for the experimental part: The bioactivity of the herb formula was assessed using HL60 cell lines. HL60 is a human promyelocytic leukemia cell line.
Test [6] has as its target T1, estrogen (E2) binding site on MCF-7 cell lines (Homo sapiens, UniProt P03372).
T1 construct: endogenous in cells; host or cells: MCF-7 breast cancer cells
T1 sequence (P03372 1-595): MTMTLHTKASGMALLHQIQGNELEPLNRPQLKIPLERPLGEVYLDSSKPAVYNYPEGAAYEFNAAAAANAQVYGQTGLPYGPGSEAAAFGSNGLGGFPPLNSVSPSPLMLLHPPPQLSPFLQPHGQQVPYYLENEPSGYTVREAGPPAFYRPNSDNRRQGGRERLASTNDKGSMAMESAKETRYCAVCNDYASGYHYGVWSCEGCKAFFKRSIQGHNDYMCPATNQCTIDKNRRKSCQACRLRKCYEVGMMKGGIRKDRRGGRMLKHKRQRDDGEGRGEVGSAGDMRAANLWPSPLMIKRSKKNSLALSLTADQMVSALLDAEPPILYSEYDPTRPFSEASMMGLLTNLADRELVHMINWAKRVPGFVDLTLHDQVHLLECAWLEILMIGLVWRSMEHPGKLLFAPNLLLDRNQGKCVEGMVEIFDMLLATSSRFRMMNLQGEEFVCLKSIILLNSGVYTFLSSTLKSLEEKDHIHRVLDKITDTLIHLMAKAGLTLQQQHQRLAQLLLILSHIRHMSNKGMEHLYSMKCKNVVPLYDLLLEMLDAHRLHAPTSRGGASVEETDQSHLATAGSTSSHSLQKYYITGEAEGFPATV
The test can be described thus: Estrogen binding assay, 3H 17-β-estradiol displacement. The settings on record: MCF-7, 197 μM, 1 nM 3H E2, 3 hours.
Protocol: The estrogen binding capacity of the herbal formula was investigated by assay. This assay was developed and run to determine if the herbal extracts that constitute the herbal formula have any binding activity towards the estrogen (E2) binding site on MCF-7 cell lines. The MCF-7 is a breast cancer cell line and was chosen because of the ability to express E2 binding sites.
^3H 17-β-estradiol (E2) was used at a final concentration in the wells of 1 nM in media. Samples were incubated for 3 hours after which the wells were aspirated and washed 3 times with warm PBS. Cell bound radioactivity was extracted with 300 μL EtOH which was added to each well and left to lyse for 20 min at room temperature. An aliquot was removed for counting, transferred to a counting plate and scintillant added and the plate counted in a Perkin Elmer MicroBeta.

Regarding `CC(=O)Oc1ccccc1C(=O)O` [Aspirin], the “% Control (secreted PGE2)” value in test [1] was determined as 14.2%.

Take `CC(O)(CS(=O)(=O)c1ccc(F)cc1)C(=O)Nc1ccc(C#N)c(C(F)(F)F)c1` (centres unmarked) [Casodex]: the “serum PSA” value in test [2] was determined as 5.7.

`CC(=O)O[C@H]1C(=O)[C@@]2(C)[C@H]([C@H](OC(=O)c3ccccc3)[C@]3(O)C[C@H](OC(=O)[C@H](O)[C@@H](NC(=O)c4ccccc4)c4ccccc4)C(C)=C1C3(C)C)[C@]1(OC(C)=O)CO[C@@H]1C[C@@H]2O` [Paclitaxol]: the “effect on the cell cycle” value in test [3] was “arresting of cells in G2-M”. Further, in test [4], the “cells in the G0-G1 phase” value worked out at 1.16%, the “cells in the G2-M phase” value worked out at 71.89% and the “cells in the S phase” value was 26.95%. For the same molecule, the “effect on the cell cycle” value in test [5] is reported as “arrest the cells in the G2-M stage”.

As to `O=c1c(-c2ccc(O)cc2)coc2cc(O)ccc12` [diadzein], the “displacement of 3H E2 from the E2 receptor” value in test [6] was more than 60%.
